In patent US12714106B2 (Bayer Aktiengesellschaft, priority 2020, dated 2026):

Assays:
Test in all cases: Post-emergence greenhouse herbicide test, visual rating
Type in all cases: in vivo
[1] = test system: ABUTH (Abutilon theophrasti); conditions: post-emergence, 21 days after application
Procedure: (§1) Seeds of grass and broadleaf weeds were sown in pots (diameter: 7 cm) filled with a sandy loam soil. Following germination the plants were grown under optimal conditions up to a growth stage of BBCH 11 to 14 depending on species.
(§2) The applications were performed by post emergence treatments on the planted pots using a spray volume of 300 L water per hectare. The herbicides were applied alone and in combination as described.
(§3) The trial was conducted in the greenhouse ensuring optimal growing conditions.
(§4) The herbicidal effects were assessed 21 days following application by visual ratings comparing treated and untreated plants (0%=no effect to 100%=complete die-off).
(§5) The compounds of the formula (Ia), (Ib) and (I) were formulated as WP (wettable powder) formulation.
(§6) • BBCH=the BBCH code provides information about the morphological development stage of a plant. Officially, the abbreviation denotes the Biologische Bundesanstalt, Bundessortenamt and Chemische Industrie [Federal Biological Institute for Agriculture and Forestry, Federal Office for Crop Plant Varieties and Chemical Industry]. The range of BBCH 00-10 denotes the germination stages of the seeds until surface penetration. The range of BBCH 11-25 denotes the leaf development stages until stocking (corresponding to the number of tillers or side-shoots). In the Trials, the Following Biotypes of Broad-Leaved Weeds and Weed Grasses were Used: • ALOMY—sensitive (Alopecurus myosuroides) sensitive to customary herbicidally active compounds. • ALOMY_R (resistant) (Alopecurus myosuroides) resistant to herbicidally active compounds of the HRAC groups A and B; population mixture of field origin having increased metabolic resistance (IMR) and some target site resistance (TSR). • LOLRI—sensitive (Lolium rigidum) sensitive to customary herbicidally active compounds. • LOLRI_R (resistant) (Lolium rigidum) resistant to herbicidally active compounds of the HRAC groups A and B; population mixture of field origin having increased metabolic resistance (IMR) and some target site resistance (TSR). • AMAPA_R (resistant) (Amaranthus palmeri) resistant to herbicidally active compounds of the HRAC groups A and B; population mixture of field origin having increased metabolic resistance (IMR) and some target site resistance (TSR). • CHRVI (Chloris virgate) feather finger grass • KCHSC (Kochia scoparia) Mexican burning bush • MATIN (Matricaria inodora) false chamomile • POLCO (Polygonum convolvulus) black knotweed • ABUTH (Abutilon theophrasti) china jute • AMAPA (Amaranthus palmeri) palmer amaranth • BIDPI (Bidens pilosa) common blackjack • CHEAL (Chenopodium album) common lambsquarters • EPHHL (Euphorbia heterophylla) wild spurge • XANST (Xanthium strumarium) large cocklebur • EMEAU (Emex australis)—Cathead • GALAP (Gallium aparine)—Cleaver
(§7) The synergistic herbicidal activity was calculated using Colby's formula (cf. S. R. Colby; Weeds 15 (1967), 20-22): […]

[2] = test system: AMAPA-R (resistant) (Amaranthus palmeri); conditions: 25 g/ha single isomer; post-emergence; 21 days after application
Procedure: as §1, §2, §3, §4, §5, §6, §7

[3] = test system: BID PI (Bidens pilosa); conditions: 25 g/ha single isomer; post-emergence; 21 days after application
Procedure: as §1, §2, §3, §4, §5, §6, §7

[4] = test system: CHEAL (Chenopodium album); conditions: post-emergence, 21 days after application
Procedure: as §1, §2, §3, §4, §5, §6, §7

[5] = test system: CHRVI (Chloris virgate); conditions: 12.5 g/ha; post-emergence; 21 days after application
Procedure: as §1, §2, §3, §4, §5, §6, §7

[6] = test system: EMEAU (Emex australis); conditions: 50 g/ha; post-emergence; 21 days after application
Procedure: as §1, §2, §3, §4, §5, §6, §7

[7] = test system: EPHHL (Euphorbia heterophylla); conditions: post-emergence, 21 days after application
Procedure: as §1, §2, §3, §4, §5, §6, §7

[8] = test system: GALAP (Gallium aparine); conditions: 50 g/ha; post-emergence; 21 days after application
Procedure: as §1, §2, §3, §4, §5, §6, §7

[9] = test system: KCHSC (Kochia scoparia); conditions: 12.5 g/ha; post-emergence; 21 days after application
Procedure: as §1, §2, §3, §4, §5, §6, §7

[10] = test system: LOLRI - sensitive (Lolium rigidum); conditions: post-emergence, 21 days after application
Procedure: as §1, §2, §3, §4, §5, §6, §7

[11] = test system: LOLRI_R (resistant) (Lolium rigidum); conditions: post-emergence, 21 days after application
Procedure: as §1, §2, §3, §4, §5, §6, §7

[12] = test system: MATIN (Matricaria inodora); conditions: post-emergence, 21 days after application
Procedure: as §1, §2, §3, §4, §5, §6, §7

[13] = test system: POLCO (Polygonum convolvulus); conditions: 12.5 g/ha; post-emergence; 21 days after application
Procedure: as §1, §2, §3, §4, §5, §6, §7

[14] = test system: XANST (Xanthium strumarium); conditions: post-emergence, 21 days after application
Procedure: as §1, §2, §3, §4, §5, §6, §7

Question: Which results are given for `C=C[C@]1(C(=O)N[C@@H]2CO[C@H](C(=O)OC)C2)CC(c2cc(F)cc(F)c2)=NO1` [(Ib), methyl(2S,4S)-4-[[(5S)-3-(3,5-difluorophenyl)-5-vinyl-4H-isoxazole-5-carbonyl]amino]-tetrahydrofuran-2-carboxylate]?
Answer: ABUTH Observed ([1]; 25 g/ha single isomer): 10%; ABUTH Observed ([1]; 50 g/ha single isomer): 20%; AMAPA-R Observed [2]: 25%; BID PI Observed [3]: 10%; CHEAL Observed ([4]; 25 g/ha single isomer): 20%; CHEAL Observed ([4]; 50 g/ha single isomer): 60%; CHRVI Observed [5]: 20%; EMEAU Observed [6]: 45%; EPHHL Observed ([7]; 25 g/ha single isomer): 35%; EPHHL Observed ([7]; 50 g/ha single isomer): 35%; GALAP Observed [8]: 35%; KCHSC Observed [9]: 40%; LOLRI Observed ([10]; 6.25 g/ha): 0%; LOLRI Observed ([10]; 12.5 g/ha): 0%; LOLRI_R Observed ([11]; 6.25 g/ha): 0%; LOLRI_R Observed ([11]; 12.5 g/ha): 0%; LOLRI_R Observed ([11]; 25 g/ha): 0%; MATIN Observed ([12]; 12.5 g/ha): 0%; MATIN Observed ([12]; 25 g/ha): 0%; MATIN Observed ([12]; 50 g/ha): 0%; POLCO Observed [13]: 40%; XANST Observed ([14]; 25 g/ha single isomer): 0%; XANST Observed ([14]; 50 g/ha single isomer): 10%; XANST Observed ([14]; 100 g/ha single isomer): 20%
